Measurements: US9745307B2, “Compounds that are ERK inhibitors” (Merck Sharp & Dohme Corp., priority 2013, dated 2017)

The compounds below were run against phosphorylated active hERK2 enzyme (Homo sapiens (Human), UniProt P28482) (assay: Active Human ERK2 (hERK2) Activity Assay (IMAP-FP)). Conditions: 0.5 nM hERK2, 30 μM ATP, 60 minutes reaction; read-out: ERK 2 Human average IC50.
Chain of phosphorylated active hERK2 enzyme (P28482 whole entry): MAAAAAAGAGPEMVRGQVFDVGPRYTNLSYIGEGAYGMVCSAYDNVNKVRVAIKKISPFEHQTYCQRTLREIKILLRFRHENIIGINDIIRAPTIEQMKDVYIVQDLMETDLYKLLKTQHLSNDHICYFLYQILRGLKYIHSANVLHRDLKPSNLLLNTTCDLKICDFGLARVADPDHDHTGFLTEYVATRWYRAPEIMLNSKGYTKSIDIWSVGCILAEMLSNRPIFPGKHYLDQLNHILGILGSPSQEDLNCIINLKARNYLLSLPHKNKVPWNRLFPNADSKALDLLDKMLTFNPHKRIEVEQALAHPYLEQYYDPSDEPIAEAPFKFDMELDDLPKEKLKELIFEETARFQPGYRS
Format: biochemical
Description: Active Human ERK2 (hERK2) Activity Assay:
Activated ERK2 activity was determined in an IMAP-FP assay (Molecular Devices).
Compound `Cc1cc(-c2n[nH]c3cc4c(cc23)CCC(=O)N4O)ccn1` [Example 8, 8-hydroxy-3-(2-methylpyridin-4-yl)-5,6-dihydro-1H-pyrazolo[4,3-g]quinolin-7(8H)-one] has an IC50 of 0.0036 µM.
For `C[C@H](c1ccccc1)N1Cc2cc3c(-c4ccc5nnn(C)c5c4)n[nH]c3cc2NC1=O` [Example 26, (R)-3-(1-methyl-1H-benzo[d][1,2,3]triazol-6-yl)-6-(1-phenylethyl)-5,6-dihydro-1H-pyrazolo[4,3-g]quinazolin-7(8H)-one], the IC50 was 0.0003 µM.
`CCNc1n[nH]c2cc3c(cc12)CN([C@H](C)c1ccccc1)C(=O)N3` [Example 29, (R)-3-(ethylamino)-6-(1-phenylethyl)-5,6-dihydro-1H-pyrazolo[4,3-g]quinazolin-7(8H)-one] showed an IC50 of 0.022 µM.
`C[C@H](c1ccccc1)N1Cc2cc3c(N[C@@H](C)C(F)(F)F)n[nH]c3cc2NC1=O` [Example 30, 6-((R)-1-phenylethyl)-3-(((S)-1,1,1-trifluoropropan-2-yl)amino)-5,6-dihydro-1H-pyrazolo[4,3-g]quinazolin-7(8H)-one] showed an IC50 of 0.025 µM.
For `C[C@H](c1ccccc1)N1Cc2cc3cn[nH]c3cc2NC1=O` [Example 31, (R)-6-(1-phenylethyl)-5,6-dihydro-1H-pyrazolo[4,3-g]quinazolin-7(8H)-one], the IC50 was 0.055 µM.
`C[C@H](c1ccccc1)N1Cc2cc3c(N)n[nH]c3cc2NC1=O` [Example 32, (R)-3-amino-6-(1-phenylethyl)-5,6-dihydro-1H-pyrazolo[4,3-g]quinazolin-7(8H)-one] showed an IC50 of 0.021 µM.
`COC(=O)Nc1n[nH]c2cc3c(cc12)CN([C@H](C)c1ccccc1)C(=O)N3` [Example 33, (R)-methyl(7-oxo-6-(1-phenylethyl)-5,6,7,8-tetrahydro-1H-pyrazolo[4,3-g]quinazolin-3-yl)carbamate] was tested, and the IC50 was 0.0052 µM.
`C[C@H](c1ccccc1)n1c(=O)[nH]c2cc3[nH]nc(N)c3cc2c1=O` [Example 44, (R)-3-amino-6-(1-phenylethyl)-1H-pyrazolo[4,3-g]quinazoline-5,7(6H,8H)-dione] was tested, and the IC50 was 0.045 µM.
